The results in this text go back to patent US6790848B2, “4-piperazinylindole derivatives with 5-HT6 receptor affinity” (Syntex (U.S.A.) LLC, priority 2001, dated 2004).

Each structure is given as a SMILES string. Where a name gives a salt, the structure may show the parent alone.

For the first data set, the target named is T1, recombinant human 5-HT6 receptor (Homo sapiens, UniProt P50406).
T1 construct: expressed in transfected cells; cell membranes used
T1 sequence (P50406 whole entry): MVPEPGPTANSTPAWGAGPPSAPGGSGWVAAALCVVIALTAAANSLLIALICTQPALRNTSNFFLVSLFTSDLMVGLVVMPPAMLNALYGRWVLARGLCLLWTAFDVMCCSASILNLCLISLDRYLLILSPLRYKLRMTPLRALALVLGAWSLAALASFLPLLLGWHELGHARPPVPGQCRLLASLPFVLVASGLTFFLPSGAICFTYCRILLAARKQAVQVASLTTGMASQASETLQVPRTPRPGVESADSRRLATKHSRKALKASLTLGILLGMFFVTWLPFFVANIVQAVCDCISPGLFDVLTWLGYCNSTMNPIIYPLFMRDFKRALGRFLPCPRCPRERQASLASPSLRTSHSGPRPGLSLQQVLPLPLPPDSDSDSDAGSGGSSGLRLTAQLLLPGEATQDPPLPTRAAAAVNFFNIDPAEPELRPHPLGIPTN
In words: Radioligand binding studies: competition for [3H]LSD binding in membranes of HEK293 cells. The following applies: [3H]LSD (5 nM), HEK293 cell membranes, 60 min at 37° C., pH 7.4. How it is done:
The pharmacology of the compounds of this invention was determined by art recognized procedures.
The binding activity of compounds of this invention in vitro was determined as follows.
Duplicate determinations of ligand affinity are made by competing for binding of [3H]LSD in cell membranes derived from HEK293 cells stably expressing recombinant human 5-HT6 receptor.
All determinations are made in assay buffer containing 50 mM Tris-HCl, 10 mM MgSO4, 0.5 mM EDTA, 1 mM ascorbic acid, pH 7.4 at 37° C., in a 250 microliter reaction volume. Assay tubes containing [3H] LSD (5 nM), competing ligand, and membrane are incubated in a shaking water bath for 60 min. at 37° C., filtered onto Packard GF-B plates (pre-soaked with 0.3% PEI) using a Packard 96 well cell harvester and washed 3 times in ice cold 50 mM Tris-HCl. Bound [3H] LSD is determined as radioactive counts per minute using Packard TopCount.
Displacement of [3H]LSD from the binding sites was quantified by fitting concentration-binding data to a 4-parameter logistic equation: [formula]
where Hill is the Hill slope, [ligand] is the concentration of competing radioligand and IC50 is the concentration of radioligand producing half-maximal specific binding of radioligand. The specific binding window is the difference between the Bmax and the basal parameters.
As to `O=S(=O)(c1cc(Cl)ccc1Cl)n1ccc2c(N3CCNCC3)cccc21` [1-(2,5-dichloro-benzenesulfonyl)-4-piperazin-1-yl-1H-indole], the inhibition constant (Ki) is 0.151 nM. Turning to `COc1ccc(OC)c(S(=O)(=O)n2ccc3c(N4CCNCC4)cccc32)c1` [1-(2,5-dimethoxy-benzenesulfonyl)-4-piperazin-1-yl-1H-indole], the inhibition constant Ki was 0.933 nM. `CS(=O)(=O)c1ccc(F)c(S(=O)(=O)n2ccc3c(N4CCNCC4)cccc32)c1` [1-(2-fluoro-5-methanesulfonyl-benzenesulfonyl)-4-piperazin-1-yl-1H-indole]: the Ki is 13.8 nM. `O=S(=O)(c1ccccc1F)n1ccc2c(N3CCNCC3)cccc21` [1-(2-fluoro-benzenesulfonyl)-4-piperazin-1-yl-1H-indole]: the Ki is 0.0525 nM. Take `CS(=O)(=O)c1ccccc1S(=O)(=O)n1ccc2c(N3CCNCC3)cccc21` [1-(2-methanesulfonyl-benzenesulfonyl)-4-piperazin-1-yl-1H-indole]: the Ki is 16.6 nM. For `O=S(=O)(c1cc(Cl)cc(Cl)c1)n1ccc2c(N3CCNCC3)cccc21` [1-(3,5-Dichloro-benzenesulfonyl)-4-piperazin-1-yl-1H-indole], the inhibition constant (Ki) was 0.372 nM. With `CS(=O)(=O)c1cc(Br)cc(S(=O)(=O)n2ccc3c(N4CCNCC4)cccc32)c1` [1-(3-bromo-5-methanesulfonyl-benzenesulfonyl)-4-piperazin-1-yl-1H-indole], the inhibitory constant (Ki) is 7.59 nM. Consider `O=S(=O)(c1cccc(Cl)c1)n1ccc2c(N3CCNCC3)cccc21` [1-(3-chloro-benzenesulfonyl)-4-piperazin-1-yl-1H-indole], for which the Ki is 0.11 nM. Consider `CCS(=O)(=O)c1cccc(S(=O)(=O)n2ccc3c(N4CCNCC4)cccc32)c1` [1-(3-ethanesulfonyl-benzenesulfonyl)-4-piperazin-1-yl-1H-indole], for which the Ki was 1.55 nM.

For the compound `O=S(=O)(c1cccc(F)c1)n1ccc2c(N3CCNCC3)cccc21` [1-(3-fluoro-benzenesulfonyl)-4-piperazin-1-yl-1H-indole], the inhibition constant Ki was 0.155 nM.

As for `CS(=O)(=O)c1cccc(S(=O)(=O)n2ccc3c(N4CCNCC4)cccc32)c1` [1-(3-methanesulfonyl-benzenesulfonyl)-4-piperazin-1-yl-1Hindole], the Ki was 2.69 nM. As to `COc1cccc(S(=O)(=O)n2ccc3c(N4CCNCC4)cccc32)c1` [1-(3-methoxy-benzenesulfonyl)-4-piperazin-1-yl-1H-indole], the inhibitory constant (Ki) was 0.372 nM.

`COc1ccc(S(=O)(=O)n2ccc3c(N4CCNCC4)cccc32)cc1` [1-(4-Methoxy-benzenesulfonyl)-4-piperazin-1-yl-1H-indole]: the inhibition constant (Ki) is 0.447 nM. With `O=S(=O)(c1ccc(Cl)cc1)n1ccc2c(N3CCNCC3)cccc21` [1-(4-chloro-benzenesulfonyl)-4-piperazin-1-yl-1H-indole], the inhibition constant Ki was 0.537 nM. For `CN1CCN(c2cccc3c2ccn3S(=O)(=O)c2ccc(F)cc2)CC1` [1-(4-fluoro-benzenesulfonyl)-4-(4-methyl-piperazin-1-yl)-1H-indole], the inhibitory constant (Ki) is 0.832 nM. With `CS(=O)(=O)c1ccc(S(=O)(=O)n2ccc3c(N4CCNCC4)cccc32)cc1` [1-(4-methanesulfonyl-benzenesulfonyl)-4-piperazin-1-yl-1H-indole], the Ki was 42.7 nM. Consider `CC(C)(C)c1ccc(S(=O)(=O)n2ccc3c(N4CCNCC4)cccc32)cc1` [1-(4-ter-butyl-benzenesulfonyl)-4-piperazin-1-yl-1H-indole], for which the Ki was 3.55 nM. Take `O=S(=O)(c1cnc(Cl)c(Br)c1)n1ccc2c(N3CCNCC3)cccc21` [1-(5-bromo-6-chloro-pyridine-3-sulfonyl)-4-piperazin-1-yl-1H-indole]: the inhibition constant (Ki) is 5.62 nM. On the same count and under the same terms, the value for `O=S(=O)(c1cccc2ccccc12)n1ccc2c(N3CCNCC3)cccc21` [1-(Naphthalene-1-sulfonyl)-4-piperazin-1-yl-1H-indole] was 0.158 nM. `CC(C)CS(=O)(=O)c1cccc(S(=O)(=O)n2ccc3c(N4CCNCC4)cccc32)c1` [1-[3-(2-methyl-propane-1-sulfonyl)-benzenesulfonyl]-4-piperazin-1-yl-1H-indole]: the inhibition constant (Ki) was 1.91 nM. For the compound `O=S(=O)(c1ccccc1)n1cc(Br)c2c(N3CCNCC3)cccc21` [1-benzenesulfonyl-3-bromo-4-piperazin-1-yl-1H-indole], the Ki was 0.123 nM.

As for `N#Cc1cccc(S(=O)(=O)n2ccc3c(N4CCNCC4)cccc32)c1` [3-(4-piperazin-1-yl-indole-1-sulfonyl)-benzonitrile], the inhibition constant Ki was 1.12 nM. In the case of `O=S(=O)(c1cccc(C(F)(F)F)c1)n1ccc2c(N3CCNCC3)cccc21` [4-piperazin-1-yl-1-(3-trifluoromethyl-benzenesulfonyl)-1H-indole], the Ki is 0.2 nM. Take `O=S(=O)(c1cccs1)n1ccc2c(N3CCNCC3)cccc21` [4-piperazin-1-yl-1-(thiophene-2-sulfonyl)-1H-indole]: the inhibition constant Ki was 0.447 nM.

As to `CCCS(=O)(=O)c1cccc(S(=O)(=O)n2ccc3c(N4CCNCC4)cccc32)c1` [4-piperazin-1-yl-1-[3-(propane-1-sulfonyl)-benzenesulfonyl]-1H-indole], the inhibition constant Ki was 1.55 nM. Turning to `O=S(=O)(NC1CC1)c1cccc(S(=O)(=O)n2ccc3c(N4CCNCC4)cccc32)c1` [N-cyclopropyl-3-(4-piperazin-1-yl-indole-1-sulfonyl)-benzenesulfonamide], the Ki was 1.26 nM. For the compound `CN(C)S(=O)(=O)c1cccc(S(=O)(=O)n2ccc3c(N4CCNCC4)cccc32)c1` [NN-dimethyl-3-(4-piperazin-1-yl-indole-1-sulfonyl)-benzenesulfonamide], the pKi is recorded as 8.69.

Test system in another data set: not given
Assay: not given
Details: not given
In turn, `O=S(=O)(c1cccc(Br)c1)n1ccc2c(N3CCNCC3)cccc21` (as salt: hydrochloride) yielded a melting point of 158 to 159 °C. On the same count and under the same terms, the value for `O=S(=O)(c1cc(Cl)cc(Cl)c1)n1ccc2c(N3CCNCC3)cccc21` (as salt: hydrochloride) [1-(3,5-Dichloro-benzenesulfonyl)-4-piperazin-1-yl-1H-indole] was 156 to 157 °C; that for `CCS(=O)(=O)c1cccc(S(=O)(=O)n2ccc3c(N4CCNCC4)cccc32)c1` (as salt: hydrochloride) [1-(3-ethanesulfonyl-benzenesulfonyl)-4-piperazin-1-yl-1H-indole] was 166 to 167 °C. With `CN1CCN(c2cccc3c2ccn3S(=O)(=O)c2ccc(F)cc2)CC1` (as salt: hydrochloride) [1-(4-fluoro-benzenesulfonyl)-4-(4-methyl-piperazin-1-yl)-1H-indole], the melting point lay in the range of 151 to 152 °C. Take `O=S(=O)(c1ccc(F)cc1)n1ccc2c(N3CCNCC3)cccc21` (as salt: hydrochloride) [1-(4-fluoro-benzenesulfonyl)-4-piperazin-1-yl-1H-indole]: the melting point lay in the range of 203 to 204 °C. The compound `O=S(=O)(c1ccccc1)n1cc(Br)c2c(N3CCNCC3)cccc21` (as salt: hydrochloride) [1-benzenesulfonyl-3-bromo-4-piperazin-1-yl-1H-indole] yielded a melting point of 304 to 305 °C.

In the case of `O=S(=O)(c1cccc(C(F)(F)F)c1)n1ccc2c(N3CCNCC3)cccc21` (as salt: hydrochloride) [4-piperazin-1-yl-1-(3-trifluoromethyl-benzenesulfonyl)-1H-indole], the melting point was 256 to 257 °C. As to `O=S(=O)(c1c(F)cccc1F)n1ccc2c(N3CCNCC3)cccc21` (as salt: trifluoroacetate), the melting point is 223 to 224 °C.

Consider `Cn1cnc(S(=O)(=O)n2ccc3c(N4CCNCC4)cccc32)c1` (as salt: trifluoroacetate), for which the melting point was 230 to 231 °C. Turning to `O=S(=O)(c1cc(Cl)ccc1Cl)n1ccc2c(N3CCNCC3)cccc21` (as salt: trifluoroacetate) [1-(2,5-dichloro-benzenesulfonyl)-4-piperazin-1-yl-1H-indole], the melting point was 237 to 238 °C (dec.).

On to `COc1ccc(OC)c(S(=O)(=O)n2ccc3c(N4CCNCC4)cccc32)c1` (as salt: trifluoroacetate) [1-(2,5-dimethoxy-benzenesulfonyl)-4-piperazin-1-yl-1H-indole], for which the melting point is 245 to 246 °C (dec.). `CS(=O)(=O)c1ccc(F)c(S(=O)(=O)n2ccc3c(N4CCNCC4)cccc32)c1` (as salt: trifluoroacetate) [1-(2-fluoro-5-methanesulfonyl-benzenesulfonyl)-4-piperazin-1-yl-1H-indole]: the melting point is 172 to 173 °C (dec.). In the case of `CS(=O)(=O)c1ccccc1S(=O)(=O)n1ccc2c(N3CCNCC3)cccc21` (as salt: trifluoroacetate) [1-(2-methanesulfonyl-benzenesulfonyl)-4-piperazin-1-yl-1H-indole], the melting point was determined as 171 °C. Take `O=S(=O)(c1cccc(F)c1)n1ccc2c(N3CCNCC3)cccc21` (as salt: trifluoroacetate) [1-(3-fluoro-benzenesulfonyl)-4-piperazin-1-yl-1H-indole]: the melting point was 227 to 228 °C (dec.). In the case of `COc1cccc(S(=O)(=O)n2ccc3c(N4CCNCC4)cccc32)c1` (as salt: trifluoroacetate) [1-(3-methoxy-benzenesulfonyl)-4-piperazin-1-yl-1H-indole], the melting point is 221 °C (dec.).

A word on the Ki: it is the equilibrium dissociation constant of an inhibitor or competing ligand from its target. One may read the pKi as −log10 of the Ki, conventionally taken in molar units. By melting point is commonly meant the temperature of the solid-liquid transition.
